# Data published in patent publication US11529318B2, “Devices and methods for local delivery of tacrolimus” (UNIVERSITY OF PITTSBURGH—OF THE COMMONWEALTH SYSTEM OF …, priority 2017, dated 2022).
# Columns and labels:
# [1] = tested on: glial fibrillary acidic protein (GFAP) expression; assay: GFAP immunohistochemistry of optic nerve after optic nerve crush; assay type: in vivo, Sprague-Dawley rats; details: 14 days after optic nerve crush, systemic tacrolimus treatment, compared to uncrushed controls
# Experimental: (§1) Optic nerve ischemia and PEUU-Tac matrix application. Animals were anesthetized by intraperitoneal injection of 45:10 mg/kg ketamine/xylazine cocktail. Once anaesthetized, the optic nerve was exposed by making a small incision and then creating a nearly bloodless plane through the conjunctiva by blunt dissection with #5 forceps. The surrounding muscle and connective tissue around the optic nerve were then gently separated until the optic nerve was exposed. Using a Yasagril aneurysm clip, the right optic nerve was clamped ˜2 mm behind the globe for 10 seconds (Sarikcioglu, Demir et al. 2007). After removing the clip, ophthalmic artery integrity was confirmed by visualization. For some animals, the optic nerve sheath was fenestrated at the injury site by making an 1-2 mm incision. For animals receiving PEUU-Tac, a 1×5 mm section cut from a 10 mg PEUU-Tac matrix was sutured around the injury site and then secured by suturing to the outer sheath. After each optic nerve procedure, the conjunctiva was sutured and antibiotic ointment (Gentamicin, Bausch & Lomb, Tampa, Fla.) was applied to the eye. In total, twenty-eight animals received acute optic nerve ischemia to the right optic nerve with or without a PEUU-Tac wrap.
# Immunohistochemistry. […]
# in vivo = assay: in vivo; set-up: species or system Sprague-Dawley rats; details: Sprague-Dawley, rat, 2.2 mg/kg/day, tacrolimus concentration
# Experimental: as §1, with “wrap. The experimental groups were as follows: • (1) Five animals received a 1 mm×5 mm section of a 10 mg PEUU-Tac sheet sutured around the nerve. • (2) Five animals received a 1 mm×5 mm section of a 10 mg PEUU-Tac matrix implanted subcutaneously in the lower right quadrant of the abdomen. • (3) Five animals received daily intraperitoneal injections of tacrolimus (2.2 mg/kg/day) for 14 days with the first injection administered immediately after ischemic injury. • (4) Five animals were used as a sham control.” for “wrap.”
# Blood and tissue collection. Twenty-four hours after injury, blood samples were drawn from all four groups via the tail vein. Four of the eight animals treated with PEUU-Tac were sacrificed at 24 hours and sixteen animals were sacrificed at 14 days. Blood, both retinas and both optic nerves were collected from all animals.
# Tacrolimus tissue extraction and reconstitution in blood. Tissue (retina and optic nerve) samples were weighted and homogenized with organic solvent (methanol, 100%) using Mini-BeadBeater-1 sonicator for cell disruption and left over night to assure complete tacrolimus extraction. The homogenate was centrifuged at 2100±100 rpm for 10 min. The methanol was transferred to a microcentrifuge tube and evaporated using a sample concentrator. The drug residue was reconstituted with 1 mL of blood. Tacrolimus in the blood was analyzed as described below and tissue drug concentration was expressed in ng/g of tissue weight.
# Quantification of tacrolimus in blood by HPLC-tandem mass spectrometry. […]
structure (smiles),measurement,setting,value
C=CC[C@@H]1/C=C(\C)C[C@H](C)C[C@H](OC)[C@H]2O[C@@](O)(C(=O)C(=O)N3CCCC[C@H]3C(=O)O[C@H](/C(C)=C/[C@@H]3CC[C@@H](O)[C@H](OC)C3)[C@H](C)[C@@H](O)CC1=O)[C@H](C)C[C@@H]2OC [tacrolimus],GFAP expression in optic nerve,[1],did not cause significant GFAP expression
same,concentration at 14 days,in vivo; left optic nerve,1700 ng/g
same,concentration at 14 days,in vivo; left retina,618 ng/g
same,concentration at 14 days,in vivo; right optic nerve,2200 ng/g
same,concentration at 14 days,in vivo; right retina,530 ng/g
